Measurements: ChEMBL document CHEMBL5625248, “Identification of unique indolylcyanoethylenyl sulfonylanilines as novel structural scaffolds of potential antibacterial agents” (Eur J Med Chem, 2023)
In brackets after ≈: the same amount, converted by molar mass.

Assays:
Type in all cases: functional
Staphylococcus aureus [1] = assay: Antibacterial activity against methicilin-resistant Staphylococcus aureus N315 assessed as inhibition of bacterial growth incubated for 18 hrs by two fold broth microdilution assay
Enterococcus faecalis = assay: Antibacterial activity against Enterococcus faecalis assessed as inhibition of bacterial growth incubated for 18 hrs by two fold broth microdilution assay
Staphylococcus aureus [2] = assay: Antibacterial activity against Staphylococcus aureus assessed as inhibition of bacterial growth incubated for 18 hrs by two fold broth microdilution assay
Staphylococcus aureus [3] = assay: Antibacterial activity against Staphylococcus aureus ATCC 25923 assessed as inhibition of bacterial growth incubated for 18 hrs by two fold broth microdilution assay
Staphylococcus aureus [4] = assay: Antibacterial activity against Staphylococcus aureus ATCC 29213 assessed as inhibition of bacterial growth incubated for 18 hrs by two fold broth microdilution assay
Klebsiella pneumoniae = assay: Antibacterial activity against Klebsiella pneumoniae assessed as inhibition of bacterial growth incubated for 18 hrs by two fold broth microdilution assay
Escherichia coli [5] = assay: Antibacterial activity against Escherichia coli assessed as inhibition of bacterial growth incubated for 18 hrs by two fold broth microdilution assay
Pseudomonas aeruginosa [6] = assay: Antibacterial activity against Pseudomonas aeruginosa assessed as inhibition of bacterial growth incubated for 18 hrs by two fold broth microdilution assay
Acinetobacter baumannii = assay: Antibacterial activity against Acinetobacter baumannii assessed as inhibition of bacterial growth incubated for 18 hrs by two fold broth microdilution assay
Pseudomonas aeruginosa [7] = assay: Antibacterial activity against Pseudomonas aeruginosa ATCC 27853 assessed as inhibition of bacterial growth incubated for 18 hrs by two fold broth microdilution assay
Escherichia coli [8] = assay: Antibacterial activity against Escherichia coli ATCC 25922 assessed as inhibition of bacterial growth incubated for 18 hrs by two fold broth microdilution assay

Structure (SMILES)	MIC (Staphylococcus aureus [1]) [µg/mL]	MIC (Enterococcus faecalis) [µg/mL]	MIC (Staphylococcus aureus [2]) [µg/mL]	MIC (Staphylococcus aureus [3]) [µg/mL]	MIC (Staphylococcus aureus [4]) [µg/mL]	MIC (Klebsiella pneumoniae) [µg/mL]	MIC (Escherichia coli [5]) [µg/mL]	MIC (Pseudomonas aeruginosa [6]) [µg/mL]	MIC (Acinetobacter baumannii) [µg/mL]	MIC (Pseudomonas aeruginosa [7]) [µg/mL]	MIC (Escherichia coli [8]) [µg/mL]
N#C/C(=C\c1cn(Cc2cccc(F)c2)c2ccccc12)S(=O)(=O)c1ccc(N)cc1	256 (≈ 593 µM)	128 (≈ 297 µM)	128 (≈ 297 µM)	64 (≈ 148 µM)	64 (≈ 148 µM)	4 (≈ 9.27 µM)	256 (≈ 593 µM)	64 (≈ 148 µM)	8 (≈ 18.5 µM)	64 (≈ 148 µM)	64 (≈ 148 µM)
N#C/C(=C\c1c[nH]c2cccc(Cl)c12)S(=O)(=O)c1ccc(N)cc1	64 (≈ 179 µM)	32 (≈ 89.4 µM)	32 (≈ 89.4 µM)	128 (≈ 358 µM)	32 (≈ 89.4 µM)	4 (≈ 11.2 µM)	256 (≈ 715 µM)	64 (≈ 179 µM)	16 (≈ 44.7 µM)	64 (≈ 179 µM)	64 (≈ 179 µM)
CC(=O)Nc1ccc(S(=O)(=O)/C(C#N)=C/c2cn(CC3CC3)c3ccccc23)cc1	32 (≈ 76.3 µM)	64 (≈ 153 µM)	256 (≈ 610 µM)	64 (≈ 153 µM)	64 (≈ 153 µM)	64 (≈ 153 µM)	16 (≈ 38.1 µM)	32 (≈ 76.3 µM)	16 (≈ 38.1 µM)	64 (≈ 153 µM)	32 (≈ 76.3 µM)
CC(=O)Nc1ccc(S(=O)(=O)/C(C#N)=C/c2cn(CC3CCCC3)c3ccccc23)cc1	128 (≈ 286 µM)	32 (≈ 71.5 µM)	8 (≈ 17.9 µM)	128 (≈ 286 µM)	16 (≈ 35.7 µM)	4 (≈ 8.94 µM)	256 (≈ 572 µM)	64 (≈ 143 µM)	32 (≈ 71.5 µM)	16 (≈ 35.7 µM)	64 (≈ 143 µM)
N#C/C(=C\c1cn(CC2CCCCC2)c2ccccc12)S(=O)(=O)c1ccc(N)cc1	1 (≈ 2.38 µM)	8 (≈ 19.1 µM)	16 (≈ 38.1 µM)	2 (≈ 4.77 µM)	2 (≈ 4.77 µM)	4 (≈ 9.53 µM)	4 (≈ 9.53 µM)	4 (≈ 9.53 µM)	32 (≈ 76.3 µM)	2 (≈ 4.77 µM)	2 (≈ 4.77 µM)
C#CCn1cc(/C=C(\C#N)S(=O)(=O)c2ccc(NC(C)=O)cc2)c2ccccc21	2 (≈ 4.96 µM)	4 (≈ 9.91 µM)	2 (≈ 4.96 µM)	4 (≈ 9.91 µM)	8 (≈ 19.8 µM)	4 (≈ 9.91 µM)	8 (≈ 19.8 µM)	4 (≈ 9.91 µM)	8 (≈ 19.8 µM)	2 (≈ 4.96 µM)	2 (≈ 4.96 µM)
CC(=O)Nc1ccc(S(=O)(=O)/C(C#N)=C/c2cn(CCO)c3ccccc23)cc1	32 (≈ 78.2 µM)	4 (≈ 9.77 µM)	2 (≈ 4.88 µM)	2 (≈ 4.88 µM)	2 (≈ 4.88 µM)	2 (≈ 4.88 µM)	4 (≈ 9.77 µM)	4 (≈ 9.77 µM)	32 (≈ 78.2 µM)	8 (≈ 19.5 µM)	1 (≈ 2.44 µM)
CC(=O)Nc1ccc(S(=O)(=O)/C(C#N)=C/c2cn(CCN3CCOCC3)c3ccccc23)cc1	32 (≈ 66.9 µM)	256 (≈ 535 µM)	128 (≈ 267 µM)	32 (≈ 66.9 µM)	32 (≈ 66.9 µM)	256 (≈ 535 µM)	64 (≈ 134 µM)	4 (≈ 8.36 µM)	32 (≈ 66.9 µM)	8 (≈ 16.7 µM)	0.5 (≈ 1.04 µM)
N#C/C(=C\c1c[nH]c2ccccc12)S(=O)(=O)c1ccc(N)cc1	64 (≈ 198 µM)	32 (≈ 99 µM)	32 (≈ 99 µM)	128 (≈ 396 µM)	32 (≈ 99 µM)	1 (≈ 3.09 µM)	2 (≈ 6.18 µM)	4 (≈ 12.4 µM)	8 (≈ 24.7 µM)	1 (≈ 3.09 µM)	4 (≈ 12.4 µM)
CC(=O)Nc1ccc(S(=O)(=O)/C(C#N)=C/c2cn(CC(=O)N(C(C)C)C(C)C)c3ccccc23)cc1	64 (≈ 126 µM)	64 (≈ 126 µM)	32 (≈ 63.2 µM)	32 (≈ 63.2 µM)	64 (≈ 126 µM)	32 (≈ 63.2 µM)	64 (≈ 126 µM)	64 (≈ 126 µM)	32 (≈ 63.2 µM)	64 (≈ 126 µM)	64 (≈ 126 µM)
C=CCn1cc(/C=C(\C#N)S(=O)(=O)c2ccc(NC(C)=O)cc2)c2ccccc21	8 (≈ 19.7 µM)	8 (≈ 19.7 µM)	256 (≈ 631 µM)	4 (≈ 9.86 µM)	256 (≈ 631 µM)	8 (≈ 19.7 µM)	8 (≈ 19.7 µM)	8 (≈ 19.7 µM)	2 (≈ 4.93 µM)	16 (≈ 39.5 µM)	1 (≈ 2.47 µM)
CC(=O)Nc1ccc(S(=O)(=O)/C(C#N)=C/c2cn(Cc3cccc(Cl)c3)c3ccccc23)cc1	128 (≈ 261 µM)	256 (≈ 522 µM)	64 (≈ 131 µM)	128 (≈ 261 µM)	8 (≈ 16.3 µM)	16 (≈ 32.7 µM)	128 (≈ 261 µM)	64 (≈ 131 µM)	64 (≈ 131 µM)	64 (≈ 131 µM)	4 (≈ 8.16 µM)
CC(=O)Nc1ccc(S(=O)(=O)/C(C#N)=C/c2c[nH]c3ccc([N+](=O)[O-])cc23)cc1	64 (≈ 156 µM)	32 (≈ 78 µM)	32 (≈ 78 µM)	128 (≈ 312 µM)	32 (≈ 78 µM)	64 (≈ 156 µM)	64 (≈ 156 µM)	64 (≈ 156 µM)	8 (≈ 19.5 µM)	32 (≈ 78 µM)	64 (≈ 156 µM)
